Results reported in US20240327425A1, “KRAS G12D INHIBITOR AND USE THEREOF” (SHANGHAI DE NOVO PHARMATECH CO., LTD., priority 2021, published 2024).
Where a name gives a salt, the structure may show the parent alone.

Target: Human KRAS G12D His-tagged protein (Homo sapiens (Human), UniProt P01116, G12D)
Test: KRAS G12D binding assay (TR-FRET)
Conditions: GDP 20 nM, GTP-Red
Procedure: The binding ability of the compound to KRAS G12D protein was detected by TR-FRET method, and the inhibitory activity of the compound on KRAS G12D protein was evaluated. Human KRAS G12D His-tagged (Cisbio, 63ADK000CB27PEG) protein was 100-fold diluted with PPI Eu detection buffer (Cisbio, 61DB9RBF), then 5 μL of which was added to a 384-well plate and centrifuged at 2000 rpm for 40 seconds. A 10 mM concentrated stock solution of the test compound was prepared with dimethyl sulfoxide, 3-fold serially diluted, then diluted to make a working solution (0.5% DMSO) with PPI Eu detection buffer, added to a 384-well plate at 5 μL/well, with the control group added with 0.5% dimethyl sulfoxide and the highest concentration of the test compound at 10 μM, and centrifuged at 2000 rpm for 40 seconds. An 80 nM GDP standard working solution (Cisbio, 63ADK000CB27PEG) was prepared with PPI Eu detection buffer and added to a 384-well plate at 5 μL/well, with the final concentration of GDP standard working solution at 20 nM. The plate was centrifuged at 2000 rpm for 40 seconds and reacted at room temperature for 30 minutes. 1×6His Eu cryptate antibody and GTP-Red reagent (Cisbio, 63ADK000CB27PEG) were prepared with PPI Eu detection buffer, mixed in a volume ratio of 1:1, 5 μL of which was then added to a 384-well plate, centrifuged at 2000 rpm for 40 seconds, and incubated at room temperature for 30 minutes. The fluorescence intensity at 620 nm and 665 nm was detected by a microplate reader, and the inhibitory activity of the compound on KRAS G12D protein was obtained by fitting a four-parameter equation.

| Compound | IC50 [nM] |
| --- | --- |
| 4-((5aS,6S,9R)-3-chloro-1-fluoro-13-(((2R,7aS)-2-fluorohexahydro-1H-pyrrolizin-7a-yl)methoxy)-5a,6,7,8,9,10-hexahydro-5H-6,9-epiminoazepino[2′,1′:3,4][1,4]oxazepino[5,6,7-de]quinazolin-2-yl)-1-(difluoromethyl)-1H-benzo[d]imidazol-2-amine ditrifluoroacetate [Compound I-23] | 217 |
| N#Cc1c(N)sc2cccc(-c3c(Cl)c4c5c(nc(OC[C@@]67CCCN6C[C@H](F)C7)nc5c3F)N3C[C@H]5CC[C@H](N5)[C@H]3CO4)c12 (single isomer, unassigned) [Compound I-7-1] | 186 |
| N#Cc1c(N)sc2c(F)ccc(-c3c(Cl)c4c5c(ncnc5c3F)N3C[C@H]5CC[C@H](N5)[C@H]3CO4)c12 (single isomer, unassigned) [Compound I-8-2] | 60.4 |
| N#Cc1c(N)sc2cccc(-c3c(Cl)c4c5c(ncnc5c3F)N3C[C@H]5CC[C@H](N5)[C@H]3CO4)c12 (single isomer, unassigned) [Compound I-10-2] | 75.8 |
| N#Cc1c(N)sc2c(F)ccc(-c3c(Cl)c4c5c(nc(OC[C@@]67CCCN6C[C@H](F)C7)nc5c3F)N3C[C@H]5CC[C@H](N5)[C@H]3CO4)c12 (single isomer, unassigned) [Compound I-11-2] | 5.9 |
| Nc1nc2c(-c3c(Cl)c4c5c(nc(OC[C@@]67CCCN6C[C@H](F)C7)nc5c3F)N3C[C@H]5CC[C@H](N5)[C@H]3CO4)cccc2s1 (single isomer, unassigned) [Compound I-12-1] | 30.3 |
| Nc1nc2c(-c3c(Cl)c4c5c(nc(OC[C@@]67CCCN6C[C@H](F)C7)nc5c3F)N3C[C@H]5CC[C@H](N5)[C@H]3CO4)ccc(F)c2s1 (single isomer, unassigned) [Compound I-19-2] | 4.63 |
| [2H]C([2H])(Oc1nc2c3c(c(Cl)c(-c4cccc5sc(N)c(C#N)c45)c(F)c3n1)OC[C@@H]1[C@@H]3CC[C@H](CN21)N3)[C@@]12CCCN1C[C@H](F)C2 (single isomer, unassigned) [Compound I-24-1] | 136 |
| Nc1n[nH]c2sc3cccc(-c4c(Cl)c5c6c(nc(OC[C@@]78CCCN7C[C@H](F)C8)nc6c4F)N4C[C@H]6CC[C@H](N6)[C@H]4CO5)c3c12 (single isomer, unassigned) [Compound I-26-2] | 11 |
| [2H]C1([2H])CC[C@@]2(C([2H])([2H])Oc3nc4c5c(c(Cl)c(-c6cccc7sc(N)c(C#N)c67)c(F)c5n3)OC[C@@H]3[C@@H]5CC[C@H](CN43)N5)C[C@@H](F)CN12 (single isomer, unassigned) [Compound I-27-1] | 212 |
| C#Cc1cccc2cc(O)cc(-c3nc4c5c(nc(OC[C@@]67CCCN6C[C@H](F)C7)nc5c3F)N3CC5CCC(N5)C3CO4)c12 (stereo partly drawn) [Compound I-1-1, 5-ethynyl-4-(1-fluoro-12-(((2R,7aS)-2-fluorohexahydro-1H-pyrrolizin-7a-yl)methoxy)-5a,6,7,8,9,10-hexahydro-5H-4-oxa-3,10a,11,13,14-pentaaza-6,9-methanonaphtho[1,8-ab]heptan-2-yl)naphthalen-2-ol] | 11 |
| C#Cc1cccc2cc(O)cc(-c3nc4c5c(nc(OC[C@@]67CCCN6C[C@H](F)C7)nc5c3F)N3C[C@H]5CC[C@H](N5)[C@H]3CO4)c12 [Compound I-4, 5-ethynyl-4-((5aS,6S,9R)-1-fluoro-12-(((2R,7aS)-2-fluorohexahydro-1H-pyrrolizin-7a(5H)-yl)methoxy)-5a,6,7,8,9,10-hexahydro-5H-4-oxa-3,10a,11,13,14-pentaaza-6,9-methanonaphtho[1,8-ab]heptan-2-yl)naphthalen-2-ol ditrifluoroacetate] | 2.72 |
| C#Cc1cccc2cc(O)cc(-c3nc4c5c(nc(OC[C@@]67CCCN6C[C@H](F)C7)nc5c3F)N3C[C@@H]5CC[C@@H](N5)[C@@H]3CO4)c12 [Compound I-5, 5-ethynyl-4-((5aR,6R,9S)-1-fluoro-12-(((2R,7aS)-2-fluorohexahydro-1H-pyrrolizin-7a(5H)-yl)methoxy)-5a,6,7,8,9,10-hexahydro-5H-4-oxa-3,10a,11,13,14-pentaaza-6,9-methanonaphtho[1,8-ab]heptan-2-yl)naphthalen-2-ol ditrifluoroacetate] | 25.4 |
| N#Cc1c(N)sc2cccc(-c3c(Cl)c4c5c(ncnc5c3F)N3CC5CCC(N5)C3CO4)c12 (stereo not drawn) [Compound I-6-2, 2-amino-4-(3-chloro-1-fluoro-5a,6,7,8,9,10-hexahydro-5H-6,9-epiminoazepino[2′,1′:3,4][1,4]oxazepino[5,6,7-de]quinazolin-2-yl)benzo[b]thiophene-3-carbonitrile (trans) trifluoroacetate] | 53.5 |
| N#Cc1c(N)nn2cccc(-c3c(Cl)c4c5c(nc(OC[C@@]67CCCN6C[C@H](F)C7)nc5c3F)N3C[C@H]5CC[C@H](N5)[C@H]3CO4)c12 [Compound I-13, 2-amino-4-((5aS,6S,9R)-3-chloro-1-fluoro-13-(((2R,7aS)-2-fluorohexahydro-1H-pyrrolizin-7a-yl)methoxy)-5a,6,7,8,9,10-hexahydro-5H-6,9-epiminoazepino[2′,1′:3,4][1,4]oxazepino[5,6,7-de]quinazolin-2-yl)pyrazolo[1,5-a]pyridine-3-carbonitrile] | 32.5 |
| Nc1cc2c(-c3c(Cl)c4c5c(nc(OC[C@@]67CCCN6C[C@H](F)C7)nc5c3F)N3C[C@H]5CC[C@H](N5)[C@H]3CO4)c(Cl)ccc2s1 [Compound I-15, 5-chloro-4-((5aS,6S,9R)-3-chloro-1-fluoro-13-(((2R,7aS)-2-fluorohexahydro-1H-pyrrolizin-7a-yl)methoxy)-5a,6,7,8,9,10-hexahydro-5H-6,9-epiminoazepino[2′,1′:3,4][1,4]oxazepino[5,6,7-de]quinazolin-2-yl)benzo[b]thiophen-2-amine ditrifluoroacetate] | 38.1 |
| Nc1cc2cc(-c3c(Cl)c4c5c(nc(OC[C@@]67CCCN6C[C@H](F)C7)nc5c3F)N3C[C@H]5CC[C@H](N5)[C@H]3CO4)ccc2s1 [Compound I-16, 5-((5aS,6S,9R)-3-chloro-1-fluoro-13-(((2R,7aS)-2-fluorohexahydro-1H-pyrrolizin-7a-yl)methoxy)-5a,6,7,8,9,10-hexahydro-5H-6,9-epiminoazepino[2′,1′:3,4][1,4]oxazepino[5,6,7-de]quinazolin-2-yl)benzo[b]thiophen-2-amine ditrifluoroacetate] | 24 |
| CC(Oc1nc2c3c(c(Cl)c(-c4cccc5sc(N)c(C#N)c45)c(F)c3n1)OCC1C3CCC(CN21)N3)C12CCCN1CC(F)C2 [Compound I-17-1, 2-amino-4-((5aS,6S,9R)-3-chloro-1-fluoro-13-(1-((2R,7aS)-2-fluorohexahydro-1H-pyrrolizin-7a-yl)ethoxy)-5a,6,7,8,9,10-hexahydro-5H-6,9-epiminoazepino[2′,1′:3,4][1,4]oxazepino[5,6,7-de]quinazolin-2-yl)benzo[b]thiophene-3-carbonitrile] | 646 |
| CC(Oc1nc2c3c(c(Cl)c(-c4cccc5sc(N)c(C#N)c45)c(F)c3n1)OC[C@H]1[C@@H]3CC[C@H](CN21)N3)[C@@]12CCCN1C[C@@H](F)C2 (stereo partly drawn) [Compound I-17-2, 2-amino-4-((5aS,6S,9R)-3-chloro-1-fluoro-13-(1-((2R,7aS)-2-fluorohexahydro-1H-pyrrolizin-7a-yl)ethoxy)-5a,6,7,8,9,10-hexahydro-5H-6,9-epiminoazepino[2′,1′:3,4][1,4]oxazepino[5,6,7-de]quinazolin-2-yl)benzo[b]thiophene-3-carbonitrile] | 6.9 |
| CC(Oc1nc2c3c(c(Cl)c(-c4c(F)ccc5sc(N)c(C#N)c45)c(F)c3n1)OC[C@@H]1[C@@H]3CC[C@H](CN21)N3)[C@@]12CCCN1C[C@H](F)C2 (stereo partly drawn) [Compound I-18, 2-amino-4-((5aS,6S,9R)-3-chloro-1-fluoro-13-(1-((2R,7aS)-2-fluorohexahydro-1H-pyrrolizin-7a-yl)ethoxy)-5a,6,7,8,9,10-hexahydro-5H-6,9-epiminoazepino[2′,1′:3,4][1,4]oxazepino[5,6,7-de]quinazolin-2-yl)-5-fluorobenzo[b]thiophene-3-carbonitrile ditrifluoroacetate] | 22 |
| CN1CCC[C@@H]1COc1nc2c3c(c(Cl)c(-c4cccc5sc(N)c(C#N)c45)c(F)c3n1)OC[C@@H]1[C@@H]3CC[C@H](CN21)N3 [Compound I-29] | 10.8 |
